From US20230330093A1, “APPLICATION OF NITROGEN-CONTAINING SATURATED HETEROCYCLIC COMPOUND” (SHANGHAI PHARMACEUTICALS HOLDING CO., LTD., priority 2020, published 2023)
Where “and” joins values, the source holds several entries; their conditions need not be identical. Equal values may be shown once. Entries after “also recorded” stand apart in the source; their conditions may differ.

Legend:
[1] = system: rhesus monkeys with spontaneous chronic kidney disease (CKD); assay: Effect on UACR (proteinuria), 8-week oral administration; type: in vivo, Macaca mulatta (Rhesus Macaque); settings: for MALB: Valsartan group 2.67 mg/kg/time oral (qd wk 1-2, bid wk 3-8); for MALB / UACR change rate / UACR: per animal + Mean ± SD; for UACR change rate: 8 weeks vs baseline, negative = decrease
Protocol: CKD-EPI rating […]-G3b, glomerular filtration rate eGFR: 30 59 ml/min/1.73 m^2; or moderate to severe increase in proteinuria (A2-A3): urine albumin/creatinine ratio (UACR)>15 mg/g-350 mg/g (4-6 hour urine collection), vs. age-matched control group 3±2 mg/g. In the trial, animals were brought in three stages. […] ELISA kit was used for NT-proBNP test. [table]

[2] = system: rhesus monkeys with spontaneous chronic kidney disease; assay: Effect on cystatin C (CysC), 8-week administration; type: in vivo, Macaca mulatta (Rhesus Macaque); settings: Valsartan group (n = 3)
Protocol: In the trial, animals were brought in three stages. […] Glomerular filtration rate […]: creatinine (Cr-P), urea nitrogen (BUN) and cystatin (CysC) were detected, and the eGFR value was obtained by calculation. It was performed once before the administration and once every two weeks after the administration. […] ELISA kit was used for NT-proBNP test. [table]

[3] = system: rhesus monkeys with spontaneous chronic kidney disease; assay: Effect on heart function, cardiac Doppler ultrasound, 8-week administration; settings: for Ea / LVEF: Valsartan group (n = 3)
Protocol: In the trial, animals were brought in three stages.
This was performed once before administration and once after administration. UACR=MALB/Cr—U. • Blood pressure: the blood pressure was checked after anesthesia, including systolic blood pressure (SBP), diastolic blood pressure (DBP), mean blood pressure (MBP) and heart rate (HR). This was performed once before administration and once at weeks 4 and 8 respectively after administration. • Cardiac GE Doppler ultrasound: historical cardiac ultrasonography once within 1 year (selected animals), once before administration (within 30 days (D-30) of the baseline period), and once at week 8 after administration.
Anesthesia method: 15 mg/kg of ketamine hydrochloride was used for intramuscular injection anesthesia. According to the animal anesthesia state, the supplemental anesthesia will be performed after judgment by veterinarian. Each supplemental anesthesia dose was ½ of the initial dose.
Detection method: The animal was placed in the left decubitus position, and the 6S-RS probe (frequency 2.7-8.0 MHz) was used for image acquisition.
Analysis method: After the image was collected and saved, the supporting analysis workstation EchoPAC Software was used to repeatedly detect various indicators of systolic and diastolic functions in 3 consecutive cardiac cycles.
Testing indicators and ultrasonic technology: see Table 9 below.
Testing equipment: GE Vivid S5 color Doppler ultrasound diagnostic system.

[4] = Baseline, single animals and Mean ± SD

SMILES: CCCCC(=O)N(Cc1ccc(-c2ccccc2-c2nnn[nH]2)cc1)[C@H](C(=O)O)C(C)C [Valsartan, reference compound]
- MALB ([1]; 8 weeks): 6.2 mg/L and 39.9 mg/L and 19.5 mg/L
- MALB ([1]; 8 weeks, mean): 21.9 ± 17.0 mg/L
- MALB ([1]; Baseline): 7.1 mg/L and 60.0 mg/L and 25.8 mg/L
- MALB ([1]; Baseline, mean): 31.0 ± 26.8 mg/L
- UACR change rate ([1]; Valsartan group 2.67 mg/kg/time oral): -41.10% and -69.59% and 35.88%
- UACR change rate ([1]; Valsartan group 2.67 mg/kg/time oral, mean): −24.93 ± 54.56%
- UACR Benefit assessment ([1]; Valsartan group 2.67 mg/kg/time oral, 8 weeks, per animal): both showed benefit; also recorded: the benefit was not obvious
- UACR ([1]; Valsartan group 2.67 mg/kg/time oral, 8 weeks): 22.0 mg/g and 19.3 mg/g and 20.4 mg/g
- UACR ([1]; Valsartan group 2.67 mg/kg/time oral, 8 weeks, mean): 20.6 ± 1.3 mg/g
- UACR ([1]; Valsartan group 2.67 mg/kg/time oral, Baseline): 15 mg/g and 37.3 mg/g and 63.6 mg/g and 15.0 mg/g and 38.7 ± 24.3 mg/g
- UACR of W8 decreased by, compared with the baseline ([1]; Valsartan group, 2 animals (No. 2091, No. 4861)): 40%-70%
- W8 UACR after administration ([1]; Valsartan group, one animal with baseline UACR 15 mg/g): 20.4%
- CysC ([2]; 2 weeks): 1.44 mg/L and 1.62 mg/L and 1.76 mg/L
- CysC ([2]; 2 weeks, mean): 1.61 ± 0.16 mg/L
- CysC ([2]; 4 weeks): 1.47 mg/L and 1.65 mg/L and 1.74 mg/L
- CysC ([2]; 4 weeks, mean): 1.62 ± 0.14 mg/L
- CysC ([2]; 6 weeks): 1.58 mg/L and 1.69 mg/L
- CysC ([2]; 6 weeks, mean): 1.62 ± 0.06 mg/L
- CysC ([2]; 8 weeks): 1.59 mg/L and 1.64 mg/L and 1.63 mg/L
- CysC ([2]; 8 weeks, mean): 1.62 ± 0.03 mg/L
- CysC [2, 4]: 1.66 mg/L and 1.68 mg/L and 1.73 mg/L
- CysC ([2]; Baseline, single animals and Mean ± SD, mean): 1.69 ± 0.04 mg/L
- Ea ([3]; 8 weeks): 7.01 cm/s and 7.17 cm/s and 4.61 cm/s
- LVEF ([3]; 8 weeks): 64.09% and 57.98% and 61.97%
- Ea ([3]; Baseline): 4.16 cm/s and 5.14 cm/s and 3.44 cm/s
- LVEF [3, 4]: 64.02% and 58.75% and 59.26%
- adverse reaction in the systolic and diastolic function (echocardiography) ([3]; each dose group, 8-week administration): no obvious adverse reaction
